Values of other authors in US20210154335A1, “DYE AGGREGATES-CONTAINING NANOPARTICLES AND USES THEREOF” (BOARD OF REGENTS, THE UNIVERSITY OF TEXAS SYSTEM, priority 2019, published 2021).

Details: in vivo

blood circulation half-life: 2 to 4 min
Compound: CC1(C)C(/C=C/C=C/C=C/C=C2\N(CCCCS(=O)(=O)O)c3ccc4ccccc4c3C2(C)C)=[N+](CCCCS(=O)(=O)[O-])c2ccc3ccccc3c21 [ICG, indocyanine green]
